Patent US20220323443A1, “COMBINATION THERAPY FOR CANCER TREATMENT” (TAKEDA PHARMACEUTICAL COMPANY LIMITED, priority 2019, published 2022)
Counter-ions that a name gives are not always drawn. Like-named read-outs stand apart in the source and are kept apart here.

Columns and labels:
Assay in all cases: In vitro combination study with Compound 1, Cell Titer-Glo (ATP) cell viability, 72 h;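 for Call, anti-proliferative effect of combination with Compound 1, A549: Ten-by-ten dose matrices of the two agents in duplicate, compounds added 16 h post-plating, activity relative to DMSO vehicle wells, call reflects synergy evaluation from luminescence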;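 for Call, anti-proliferative effect of combination with Compound 1, COLO205: Ten-by-ten dose matrices of both agents in duplicate plus single-agent dilutions, luminescent ATP read-out, percent activity per well relative to DMSO vehicle wells, synergy call from these matrices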;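 for Call, anti-proliferative effect of combination with Compound 1, H460: Ten-by-ten dose matrices of both drugs alongside single-agent dilutions, luminescence read 72 hours after compound addition, percent activity per well versus vehicle (DMSO) plate controls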;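 for Call, anti-proliferative effect of combination with Compound 1, HCT116: combination call from 10×10 dose matrices in duplicate, graded by synergy, with percent activity per well relative to DMSO vehicle controls on the same plate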;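 for Call, anti-proliferative effect of combination with Compound 1, SW620: Ten-by-ten dose matrices of both drugs in 384-well plates, luminescent ATP read-out, synergy evaluated against single-agent and DMSO vehicle controls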
SW48 cancer cells = assay type: cell-based
Description: (§1) Each combination pair was evaluated in an individual 384-well plate which contained variable doses of both compounds as single agents, as well as two, ten-by-ten matrices (in duplicate) that contained mixtures of the two test compounds. In brief, compounds were added to the cell test plates 16 hours after cell plating and then assessed for viability 72 hours later. Continuous cultures of tumor cells were maintained under standard cell culturing conditions (i.e. in a humidified chamber set at 37° C., containing atmosphere 5% carbon dioxide). […] Seventy-two hours after compound addition, ATP levels were measured to assess cell viability. Plating densities were chosen to ensure optimal linear growth over the 72 hour period.
Compound dilution and compound delivery to the assay plates were done on HighRes Robotic System (HighRes Biosolutions, Woburn, Mass., USA) with Echo™ Liquid Handler (Labcyte, Sunnyvale, Calif., USA). First, 384-well low dead volume (LDV) plates containing DMSO (Appendix B) and 10 mM compound stock solutions were used to create the required intermediate compound dilution plates. Next, these were used for compound transfer into cell assay plates. All wells were back-filled to give a constant percentage of DMSO.
(§2) The final DMSO concentration was held constant in all wells across the plate and was maintained at less than 0.5%. […] Cells treated with vehicle (DMSO) in two rows, or single compound serial dilutions in one plate columns/row served as the untreated control and single compound controls, respectively.
(§3) Compound activity in A549, COLO205, H460, HCT116, SW48, SW620 cancer cell lines was assessed using Cell Titer-Glo® (Promega [Madison, Wis., USA]). After 72 hours incubation, the plates were treated as per package insert protocol for the Promega Luminescence ATP Detection Systems. Briefly, 25 μL of cell lysis/substrate solution (provided in kit form) was added to each well and the plate was incubated at room temperature for 10 minutes. Luminescence was measured using a PHERAstar multi-label counter (BMG Labtech [Ortenberg, Germany]) or LEADseeker (GE Healthcare Life Sciences [Piscataway, N.J., USA]).
(§4) Numerical luminescence values were analyzed to generate EC50 curves and evaluate synergy. Raw Data reader files were uploaded along with automation workfiles that defined the plate and well contents. Percent activities were calculated for each well versus plate controls.
(§5) Each plate representing a single drug combination was analyzed separately. First, the viability measurements were normalized by scaling the data so that the median of the negative controls was 0 and the median of the positive controls was 100.
(§6) For the combination analysis, a response surface model was used to describe the relationship between the normalized viability and the drug concentrations. The data were fit to the model by minimizing the residual sum of squares. Based on the fitted response surface, plots of constant viability, called isobolograms, were produced.
(§7) The Combination Index and Nonlinear Blending were used as measures of drug synergy. To calculate Combination Index the 50% isobologram (which is the dose contour that has 50% viability) was used. […] A standard procedure was created to produce a call in order to characterize the viability effects for each combination (synergy, additivity, subadditivity, or antagonism). If the Combination Index existed then these measures were used to make the call.

H460 cancer cells = assay type: cell-based
A549 cancer cells = assay type: cell-based
HCT116 cancer cells = assay type: cell-based
COLO205 cancer cells = assay type: cell-based, human
Description: as §1
Compound dilution and compound delivery to the assay plates were done on HighRes Robotic System (HighRes Biosolutions, Woburn, Mass., USA) with Echo™ Liquid Handler (Labcyte, Sunnyvale, Calif., USA). […] Next, these were used for compound transfer into cell assay plates. All wells were back-filled to give a constant percentage of DMSO.
as §2, §3, §4, §5, §6, §7

SW620 cancer cells = assay type: cell-based
[1] = DNA damaging agent combined with Compound 1, 72 h
[2] = Table 5 drug combined with Compound 1, 72 h

Compound | Call, anti-proliferative effect of combination with Compound 1, SW48 (SW48 cancer cells; [1]) | Call, anti-proliferative effect of combination with Compound 1, H460 (H460 cancer cells; [1]) | Call, anti-proliferative effect of combination with Compound 1, A549 (A549 cancer cells) | Call, anti-proliferative effect of combination with Compound 1, HCT116 (HCT116 cancer cells; [1]) | Call, anti-proliferative effect of combination with Compound 1, SW48 (SW48 cancer cells; [2]) | Call, anti-proliferative effect of combination with Compound 1, H460 (H460 cancer cells; [2]) | Call, anti-proliferative effect of combination with Compound 1, COLO205 (COLO205 cancer cells; [2]) | Call, anti-proliferative effect of combination with Compound 1, A549 (A549 cancer cells; [2]) | Call, anti-proliferative effect of combination with Compound 1, HCT116 (HCT116 cancer cells; [2]) | Call, anti-proliferative effect of combination with Compound 1, SW620 (SW620 cancer cells; [2]) | Call, anti-proliferative effect of combination with Compound 1, SW620 (SW620 cancer cells; [1]) | other results
O=C(O)CCCc1ccc(N(CCCl)CCCl)cc1 [Chlorambucil] | Additivity (0.7 to 1.3) | Additivity (0.7 to 1.3) | Additivity (key: Inconclusive: Any; Additivity: 0.7 to 1.3; Synergy: 0 to 0.7; Subadditivity: 1.3 to 2; Antagonism: >2) | Additivity (0.7 to 1.3) | – | – | – | – | – | – | – | –
COc1cc([C@@H]2c3cc4c(cc3[C@@H](O[C@@H]3O[C@@H]5CO[C@@H](C)O[C@H]5[C@H](O)[C@H]3O)[C@H]3COC(=O)[C@H]23)OCO4)cc(OC)c1O [Etoposide] | – | – | – | – | Synergy (0 to 0.7) | Synergy (0 to 0.7) | Synergy (0 to 0.7) | Synergy (0 to 0.7) | Synergy (0 to 0.7) | Synergy (0 to 0.7) | – | –
bleomycin | – | – | Additivity (key: Inconclusive: Any; Additivity: 0.7 to 1.3; Synergy: 0 to 0.7; Subadditivity: 1.3 to 2; Antagonism: >2) | – | – | – | – | – | – | – | – | Call, anti-proliferative effect of combination with Compound 1, SW48 (SW48 cancer cells): Additivity (key: Inconclusive: Any; Additivity: 0.7 to 1.3; Synergy: 0 to 0.7; Subadditivity: 1.3 to 2; Antagonism: >2); Call, anti-proliferative effect of combination with Compound 1, H460 (H460 cancer cells): Synergy (key: Inconclusive: Any; Additivity: 0.7 to 1.3; Synergy: 0 to 0.7; Subadditivity: 1.3 to 2; Antagonism: >2); Call, anti-proliferative effect of combination with Compound 1, COLO205 (COLO205 cancer cells): Synergy (key: Inconclusive: Any; Additivity: 0.7 to 1.3; Synergy: 0 to 0.7; Subadditivity: 1.3 to 2; Antagonism: >2); Call, anti-proliferative effect of combination with Compound 1, HCT116 (HCT116 cancer cells): Synergy (key: Inconclusive: Any; Additivity: 0.7 to 1.3; Synergy: 0 to 0.7; Subadditivity: 1.3 to 2; Antagonism: >2); Call, anti-proliferative effect of combination with Compound 1, SW620 (SW620 cancer cells): Additivity (key: Inconclusive: Any; Additivity: 0.7 to 1.3; Synergy: 0 to 0.7; Subadditivity: 1.3 to 2; Antagonism: >2)
N[C@@H](Cc1ccc(N(CCCl)CCCl)cc1)C(=O)O [Melphalan] | Additivity (0.7 to 1.3) | – | Synergy (key: Inconclusive: Any; Additivity: 0.7 to 1.3; Synergy: 0 to 0.7; Subadditivity: 1.3 to 2; Antagonism: >2) | Synergy (0 to 0.7) | – | – | – | – | – | – | Synergy (0 to 0.7) | –
Nc1ncn([C@@H]2O[C@H](CO)[C@@H](O)[C@H]2O)c(=O)n1 [Azacitidine] | – | – | – | – | Additivity (0.7 to 1.3) | Additivity (0.7 to 1.3) | Additivity (0.7 to 1.3) | Additivity (0.7 to 1.3) | Additivity (0.7 to 1.3) | Additivity (0.7 to 1.3) | – | –
Cn1c(=O)n(-c2ccc(C(C)(C)C#N)cc2)c2c3cc(-c4cnc5ccccc5c4)ccc3ncc21 [BEZ-235] | – | – | – | – | Antagonism (>2) | Additivity (0.7 to 1.3) | Additivity (0.7 to 1.3) | Additivity (0.7 to 1.3) | Additivity (0.7 to 1.3) | Subadditivity (1.3 to 2) | – | –
Nc1ncn([C@H]2C[C@H](O)[C@@H](CO)O2)c(=O)n1 [Decitabine] | Additivity (0.7 to 1.3) | Synergy (0 to 0.7) | – | Synergy (0 to 0.7) | – | – | – | – | – | – | Additivity (0.7 to 1.3) | –
O=C1c2c(O)ccc(O)c2C(=O)c2c(NCCNCCO)ccc(NCCNCCO)c21 [Mitoxantrone hydrochloride] | Additivity (0.7 to 1.3) | Synergy (0 to 0.7) | – | Synergy (0 to 0.7) | – | – | – | – | – | – | Synergy (0 to 0.7) | Call, anti-proliferative effect of combination with Compound 1, COLO205 (COLO205 cancer cells; [1]): Synergy (0 to 0.7); Call, anti-proliferative effect of combination with Compound 1, A549 (A549 cancer cells; [1]): Synergy (0 to 0.7)
